Measured values from ChEMBL document CHEMBL1201862, “PubChem BioAssay data set” (2004).
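Following 48 hours of exposure in 96-well plates, responses at five concentrations were used to interpolate endpoints linearly. GI50 = concentration required for 50% inhibition of growth.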 The source made the active and inactive calls. Cut-off read from the data, not from the text of the source: active = GI50 up to about 1.1 µM and inactive = higher.

Legend:
Assay in all cases: inhibition of tumour cell growth, NCI panel, 48 h
ACHN = tested on: ACHN
CCRF-CEM = tested on: CCRF-CEM
COLO 205 = tested on: COLO 205
HCC 2998 = tested on: HCC 2998
HCT-116 = tested on: HCT-116
HOP-92 = tested on: HOP-92
KM12 = tested on: KM12
Malme-3M = tested on: Malme-3M
OVCAR-5 = tested on: OVCAR-5
OVCAR-8 = tested on: OVCAR-8
PC-3 = tested on: PC-3
RPMI-8226 = tested on: RPMI-8226
RXF 393 = tested on: RXF 393
SK-MEL-2 = tested on: SK-MEL-2
SNB-75 = tested on: SNB-75
SNB-78 = tested on: SNB-78
SW-620 = tested on: SW-620
UACC-257 = tested on: UACC-257
UO-31 = tested on: UO-31

Structure (SMILES) | GI50 (ACHN) | GI50 (CCRF-CEM) | GI50 (COLO 205) | GI50 (HCC 2998) | GI50 (HCT-116) | GI50 (HOP-92) | GI50 (KM12) | GI50 (Malme-3M) | GI50 (OVCAR-5) | GI50 (OVCAR-8) | GI50 (PC-3) | GI50 (RPMI-8226) | GI50 (RXF 393) | GI50 (SK-MEL-2) | GI50 (SNB-75) | GI50 (SNB-78) | GI50 (SW-620) | GI50 (UACC-257) | GI50 (UO-31)
CCCCCCCCCCC(O)[C@H]1CCC(C2CC[C@H]([C@H](O)CCCCCCCCCCC(O)CC3=CC(C)OC3=O)O2)O1 (some centres not stated) | 1.24 µM (inactive) | 1.94 µM (inactive) | 1.48 µM (inactive) | 3.59 µM (inactive) | 1.94 µM (inactive) | 2.44 µM (inactive) | 1.47 µM (inactive) | 1.39 µM (inactive) | 3.08 µM (inactive) | 1.48 µM (inactive) | 1.7 µM (inactive) | 2.21 µM (inactive) | 1.76 µM (inactive) | 1.53 µM (inactive) | 1.76 µM (inactive) | 2.32 µM (inactive) | 1.87 µM (inactive) | 1.27 µM (inactive) | 1.15 µM (inactive)
CC[C@]12C=CCN3CCC4(c5cc([C@@]6(C(=O)OC)CC7CN(CCc8c6[nH]c6ccccc86)C[C@@H]6CCC[C@H]76)c(OC)cc5N(C)C4[C@](O)(C(=O)OC)C1OC(C)=O)C32 (some centres not stated) | 0.807 µM (active) | 0.122 µM (active) | 0.083 µM (active) | 0.29 µM (active) | 0.108 µM (active) | 0.526 µM (active) | 0.0713 µM (active) | 0.104 µM (active) | 0.741 µM (active) | 0.185 µM (active) | 0.0336 µM (active) | 0.141 µM (active) | 0.21 µM (active) | 0.179 µM (active) | 0.0621 µM (active) | 0.237 µM (active) | 0.122 µM (active) | 0.167 µM (active) | 3.55 µM (inactive)
CC(=O)NC1=C(NCC(C)C)C(=O)c2ccccc2C1=O | > 100 µM (inactive) | 7.18 µM (inactive) | > 100 µM (inactive) | > 100 µM (inactive) | 20.3 µM (inactive) | 14.3 µM (inactive) | 42.9 µM (inactive) | 18.9 µM (inactive) | 65.9 µM (inactive) | 22.1 µM (inactive) |  | 37.3 µM (inactive) | 12.5 µM (inactive) | 26 µM (inactive) | 16.9 µM (inactive) | 31.1 µM (inactive) | 16.5 µM (inactive) | 18.8 µM (inactive) | 18 µM (inactive)
Cc1ccc(S(=O)(=O)N2CCCCC2CCO)cc1 (configuration not stated) | > 100 µM (inactive) | > 100 µM (inactive) | > 100 µM (inactive) | > 100 µM (inactive) | > 100 µM (inactive) | > 100 µM (inactive) | > 100 µM (inactive) | > 100 µM (inactive) | > 100 µM (inactive) | > 100 µM (inactive) |  | > 100 µM (inactive) | > 100 µM (inactive) | > 100 µM (inactive) | > 100 µM (inactive) | > 100 µM (inactive) | > 100 µM (inactive) | > 100 µM (inactive) | > 100 µM (inactive)
C[C@]12CC(C=O)C(=O)C(O)=C1CC[C@@H]1C2CC[C@@]2(C)C1CC[C@]2(C)O (some centres not stated) | 22.3 µM (inactive) | > 10 µM (inactive) | 18.8 µM (inactive) | 10.1 µM (inactive) | 20 µM (inactive) | 16 µM (inactive) | 25.5 µM (inactive) | 5.06 µM (inactive) | 16.5 µM (inactive) | 28.8 µM (inactive) |  | 16.6 µM (inactive) | 21.4 µM (inactive) | 5.02 µM (inactive) | 20.6 µM (inactive) | 16.5 µM (inactive) | 34.3 µM (inactive) | 24.2 µM (inactive) | 21.3 µM (inactive)
